Experimental data: ChEMBL document CHEMBL1201862, “PubChem BioAssay data set” (2004)
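Exposure lasted 48 hours, with cells grown in 96-well plates and compounds tested at five concentrations. The concentration for 50% growth inhibition is given as GI50.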 The source made the active and inactive calls. Cut-off read from the data, not from the text of the source: active = GI50 up to about 1.1 µM and inactive = higher.

Columns and labels:
Assay in all cases: inhibition of tumour cell growth, NCI panel, 48 h
[1] = test system: HL-60
[2] = test system: XF498
[3] = test system: NCI-H226
[4] = test system: M14
[5] = test system: U-251
[6] = test system: IGROV-1
[7] = test system: SW-620
[8] = test system: KM-20L2
[9] = test system: DLD-1
[10] = test system: A549
[11] = test system: A498
[12] = test system: SF-295
[13] = test system: SNB-75
[14] = test system: LOX IMVI
[15] = test system: SF-539
[16] = test system: SNB-19
[17] = test system: UO-31
[18] = test system: UACC-62
[19] = test system: SF-268
[20] = test system: HCT-116
[21] = test system: K562
[22] = test system: OVCAR-4
[23] = test system: DMS-114
[24] = test system: DMS-273
[25] = test system: SK-MEL-5
[26] = test system: SK-MEL-28
[27] = test system: HCC 2998
[28] = test system: Malme-3M
[29] = test system: CCRF-CEM
[30] = test system: ACHN
[31] = test system: OVCAR-8
[32] = test system: SK-MEL-2
[33] = test system: LXFL 529
[34] = test system: HOP-62
[35] = test system: UACC-257
[36] = test system: EKVX
[37] = test system: RPMI-8226
[38] = test system: RXF 393
[39] = test system: SN12C
[40] = test system: MOLT-4
[41] = test system: 786-0
[42] = test system: SR
[43] = test system: NCI-H23
[44] = test system: OVCAR-3
[45] = test system: COLO 205
[46] = test system: HCT-15
[47] = test system: HT-29
[48] = test system: NCI-H460
[49] = test system: TK-10
[50] = test system: M19-MEL
[51] = test system: CAKI-1
[52] = test system: HOP-18
[53] = test system: NCI-H522
[54] = test system: KM12
[55] = test system: HOP-92
[56] = test system: OVCAR-5
[57] = test system: SNB-78
[58] = test system: SK-OV-3

## CCOC(=O)C(C(CC(=O)OC)NC(=O)OCc1ccccc1)C1(C)OCCO1 (configuration not stated)
[1]
  GI50: > 100 µM (inactive)
[2]
  GI50: 61.4 µM (inactive)
[3]
  GI50: > 100 µM (inactive)
[4]
  GI50: > 100 µM (inactive)
[5]
  GI50: > 100 µM (inactive)
[6]
  GI50: > 100 µM (inactive)
[7]
  GI50: > 100 µM (inactive)
[8]
  GI50: > 100 µM (inactive)
[9]
  GI50: > 100 µM (inactive)
[10]
  GI50: > 100 µM (inactive)
[11]
  GI50: > 100 µM (inactive)
[12]
  GI50: > 100 µM (inactive)
[13]
  GI50: 41.1 µM (inactive)
[14]
  GI50: > 100 µM (inactive)
[15]
  GI50: > 100 µM (inactive)
[16]
  GI50: > 100 µM (inactive)
[17]
  GI50: > 100 µM (inactive)
[18]
  GI50: > 100 µM (inactive)
[19]
  GI50: > 100 µM (inactive)
[20]
  GI50: > 100 µM (inactive)
[21]
  GI50: > 100 µM (inactive)
[22]
  GI50: > 100 µM (inactive)
[23]
  GI50: > 100 µM (inactive)
[24]
  GI50: > 100 µM (inactive)
[25]
  GI50: > 100 µM (inactive)
[26]
  GI50: > 100 µM (inactive)
[27]
  GI50: > 100 µM (inactive)
[28]
  GI50: > 100 µM (inactive)
[29]
  GI50: > 100 µM (inactive)
[30]
  GI50: > 100 µM (inactive)
[31]
  GI50: > 100 µM (inactive)
[32]
  GI50: > 100 µM (inactive)
[33]
  GI50: > 100 µM (inactive)
[34]
  GI50: > 100 µM (inactive)
[35]
  GI50: > 100 µM (inactive)
[36]
  GI50: > 100 µM (inactive)
[37]
  GI50: > 100 µM (inactive)
[38]
  GI50: > 100 µM (inactive)
[39]
  GI50: > 100 µM (inactive)
[40]
  GI50: > 100 µM (inactive)
[41]
  GI50: > 100 µM (inactive)
[42]
  GI50: > 100 µM (inactive)
[43]
  GI50: > 100 µM (inactive)
[44]
  GI50: > 100 µM (inactive)
[45]
  GI50: > 100 µM (inactive)
[46]
  GI50: > 100 µM
[47]
  GI50: > 100 µM (inactive)
[48]
  GI50: > 100 µM (inactive)
[49]
  GI50: > 100 µM (inactive)

## CCC(C)OC(=O)C1C2CCC(O2)C1C(=O)O (configuration not stated)
[1]
  GI50: > 100 µM (inactive)
[3]
  GI50: > 100 µM (inactive)
[4]
  GI50: > 100 µM (inactive)
[5]
  GI50: > 44.3 µM (inactive)
[6]
  GI50: > 100 µM (inactive)
[8]
  GI50: > 44.9 µM (inactive)
[9]
  GI50: > 51.4 µM (inactive)
[50]
  GI50: > 60.7 µM (inactive)
[10]
  GI50: > 60.7 µM (inactive)
[51]
  GI50: > 100 µM (inactive)
[11]
  GI50: > 47.3 µM (inactive)
[12]
  GI50: > 100 µM (inactive)
[13]
  GI50: > 100 µM (inactive)
[14]
  GI50: > 41.9 µM (inactive)
[15]
  GI50: 99.8 µM (inactive)
[16]
  GI50: > 100 µM (inactive)
[17]
  GI50: > 100 µM (inactive)
[18]
  GI50: > 100 µM (inactive)
[19]
  GI50: > 51.2 µM (inactive)
[20]
  GI50: > 40.6 µM (inactive)
[21]
  GI50: > 100 µM (inactive)
[22]
  GI50: > 100 µM (inactive)
[23]
  GI50: > 41.6 µM (inactive)
[52]
  GI50: > 100 µM (inactive)
[53]
  GI50: > 100 µM (inactive)
[24]
  GI50: > 42.8 µM (inactive)
[25]
  GI50: > 100 µM (inactive)
[26]
  GI50: > 100 µM (inactive)
[27]
  GI50: > 100 µM (inactive)
[54]
  GI50: > 100 µM (inactive)
[28]
  GI50: > 100 µM (inactive)
[29]
  GI50: > 100 µM (inactive)
[30]
  GI50: > 72.4 µM (inactive)
[55]
  GI50: > 66.4 µM (inactive)
[31]
  GI50: > 70 µM (inactive)
[32]
  GI50: > 100 µM (inactive)
[33]
  GI50: > 62.7 µM (inactive)
[34]
  GI50: > 100 µM (inactive)
[35]
  GI50: > 70.5 µM (inactive)
[36]
  GI50: > 100 µM (inactive)
[37]
  GI50: > 48.3 µM (inactive)
[38]
  GI50: > 41.5 µM (inactive)
[56]
  GI50: > 100 µM (inactive)
[57]
  GI50: > 100 µM (inactive)
[39]
  GI50: > 100 µM (inactive)
[58]
  GI50: > 100 µM (inactive)
[40]
  GI50: > 87.1 µM (inactive)
[41]
  GI50: > 44.2 µM (inactive)
[42]
  GI50: 19.2 µM (inactive)
[43]
  GI50: > 100 µM (inactive)
[44]
  GI50: > 100 µM (inactive)
[45]
  GI50: > 44.8 µM (inactive)
[46]
  GI50: > 41.1 µM
[47]
  GI50: > 43.4 µM (inactive)
[48]
  GI50: 24.7 µM (inactive)
[49]
  GI50: > 100 µM (inactive)

## COc1cccc(N2C(Cl)C(=O)C2c2c[nH]c3ccccc23)c1 (configuration not stated)
[1]
  GI50: > 100 µM (inactive)
[2]
  GI50: > 100 µM (inactive)
[4]
  GI50: > 100 µM (inactive)
[5]
  GI50: > 100 µM (inactive)
[6]
  GI50: > 100 µM (inactive)
[7]
  GI50: > 100 µM (inactive)
[8]
  GI50: > 100 µM (inactive)
[50]
  GI50: > 100 µM (inactive)
[10]
  GI50: > 100 µM (inactive)
[12]
  GI50: > 100 µM (inactive)
[13]
  GI50: > 10 µM (inactive)
[16]
  GI50: > 100 µM (inactive)
[17]
  GI50: 42.8 µM (inactive)
[18]
  GI50: > 100 µM (inactive)
[19]
  GI50: > 100 µM (inactive)
[20]
  GI50: > 100 µM (inactive)
[21]
  GI50: > 100 µM (inactive)
[22]
  GI50: > 100 µM (inactive)
[23]
  GI50: > 100 µM (inactive)
[53]
  GI50: > 100 µM (inactive)
[25]
  GI50: > 100 µM (inactive)
[26]
  GI50: > 100 µM (inactive)
[54]
  GI50: > 100 µM (inactive)
[28]
  GI50: 80.9 µM (inactive)
[29]
  GI50: > 100 µM (inactive)
[55]
  GI50: > 100 µM (inactive)
[31]
  GI50: > 100 µM (inactive)
[32]
  GI50: > 100 µM (inactive)
[33]
  GI50: > 100 µM (inactive)
[34]
  GI50: > 100 µM (inactive)
[35]
  GI50: > 100 µM (inactive)
[36]
  GI50: > 100 µM (inactive)
[37]
  GI50: > 100 µM (inactive)
[38]
  GI50: > 100 µM (inactive)
[56]
  GI50: 46.1 µM (inactive)
[39]
  GI50: > 100 µM (inactive)
[58]
  GI50: > 100 µM (inactive)
[40]
  GI50: > 100 µM (inactive)
[42]
  GI50: > 100 µM (inactive)
[43]
  GI50: > 100 µM (inactive)
[44]
  GI50: > 100 µM (inactive)
[45]
  GI50: > 100 µM (inactive)
[47]
  GI50: > 100 µM (inactive)
[48]
  GI50: > 100 µM (inactive)
[49]
  GI50: > 100 µM (inactive)

## CN(C)CC(C)(C)/C(=N\Nc1ccccc1)c1ccccc1
[1]
  GI50: 21 µM (inactive)
[4]
  GI50: 21.9 µM (inactive)
[5]
  GI50: 37.4 µM (inactive)
[6]
  GI50: 36.4 µM (inactive)
[7]
  GI50: 29.1 µM (inactive)
[8]
  GI50: 16.8 µM (inactive)
[9]
  GI50: 30.4 µM (inactive)
[50]
  GI50: 82.2 µM (inactive)
[10]
  GI50: 92.5 µM (inactive)
[11]
  GI50: 82.8 µM (inactive)
[12]
  GI50: 21.1 µM (inactive)
[13]
  GI50: 37.1 µM (inactive)
[14]
  GI50: 14.6 µM (inactive)
[15]
  GI50: 24.6 µM (inactive)
[16]
  GI50: > 100 µM (inactive)
[17]
  GI50: 12.3 µM (inactive)
[18]
  GI50: 14.8 µM (inactive)
[19]
  GI50: 31.8 µM (inactive)
[20]
  GI50: 68.4 µM (inactive)
[21]
  GI50: 28.1 µM (inactive)
[22]
  GI50: 45.4 µM (inactive)
[23]
  GI50: 46.7 µM (inactive)
[52]
  GI50: 35 µM (inactive)
[53]
  GI50: 44.3 µM (inactive)
[24]
  GI50: 33.5 µM (inactive)
[25]
  GI50: 70 µM (inactive)
[26]
  GI50: 39.9 µM (inactive)
[54]
  GI50: 43.3 µM (inactive)
[28]
  GI50: 46.8 µM (inactive)
[29]
  GI50: 29.7 µM (inactive)
[30]
  GI50: 20.1 µM (inactive)
[31]
  GI50: 99.8 µM (inactive)
[32]
  GI50: 58.1 µM (inactive)
[33]
  GI50: 18.7 µM (inactive)
[34]
  GI50: 45.2 µM (inactive)
[35]
  GI50: 51.6 µM (inactive)
[36]
  GI50: 47.2 µM (inactive)
[37]
  GI50: 10.3 µM (inactive)
[38]
  GI50: 37.3 µM (inactive)
[56]
  GI50: 46.6 µM (inactive)
[57]
  GI50: 70.1 µM (inactive)
[39]
  GI50: 48.8 µM (inactive)
[58]
  GI50: 21.8 µM (inactive)
[40]
  GI50: 46.3 µM (inactive)
[41]
  GI50: 45.3 µM (inactive)
[43]
  GI50: > 100 µM (inactive)
[44]
  GI50: 54.8 µM (inactive)
[45]
  GI50: 64.3 µM (inactive)
[46]
  GI50: 16.2 µM
[47]
  GI50: 35.9 µM (inactive)
[48]
  GI50: 53.3 µM (inactive)
[49]
  GI50: 22.7 µM (inactive)
